Measured values from PubChem BioAssay (NCI).
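All cell lines were grown in 96-well plates and treated with compound for 48 hours. GI50 is the concentration that inhibits growth by half. The concentration for full growth arrest is given as TGI.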

Columns and labels:
Experiment in all cases: NCI-60 cell line screen, 48 h
[1] = test system: 786-0 renal
[2] = test system: A498 renal
[3] = test system: A549 NSCLC
[4] = test system: ACHN renal
[5] = test system: BT-549 breast
[6] = test system: COLO 205 colon
[7] = test system: DU-145 prostate
[8] = test system: EKVX NSCLC
[9] = test system: HCT-116 colon
[10] = test system: HCT-15 colon
[11] = test system: HL-60(TB) leukemia
[12] = test system: HOP-62 NSCLC
[13] = test system: HOP-92 NSCLC
[14] = test system: HS 578T breast
[15] = test system: HT29 colon
[16] = test system: IGROV1 ovarian
[17] = test system: K-562 leukemia
[18] = test system: KM12 colon
[19] = test system: LOX IMVI melanoma
[20] = test system: M14 melanoma
[21] = test system: MCF7 breast
[22] = test system: MDA-MB-231 breast
[23] = test system: MOLT-4 leukemia
[24] = test system: NCI-H226 lung
[25] = test system: NCI-H23 lung
[26] = test system: NCI-H460 lung
[27] = test system: NCI/ADR-RES ovarian
[28] = test system: OVCAR-5 ovarian
[29] = test system: OVCAR-8 ovarian
[30] = test system: PC-3 prostate
[31] = test system: RPMI-8226 leukemia
[32] = test system: RXF 393 renal
[33] = test system: SF-268 CNS
[34] = test system: SF-539 CNS
[35] = test system: SK-MEL-2 melanoma
[36] = test system: SK-MEL-28 melanoma
[37] = test system: SK-MEL-5 melanoma
[38] = test system: SK-OV-3 ovarian
[39] = test system: SN12C renal
[40] = test system: SNB-19 CNS
[41] = test system: SNB-75 CNS
[42] = test system: SW-620 colon
[43] = test system: TK-10 renal
[44] = test system: U251 CNS
[45] = test system: UACC-257 melanoma
[46] = test system: UACC-62 melanoma
[47] = test system: UO-31 renal
[48] = test system: MDA-MB-435
[49] = test system: CAKI-1 renal
[50] = test system: CCRF-CEM leukemia
[51] = test system: HCC-2998 colon
[52] = test system: MALME-3M melanoma
[53] = test system: NCI-H522 lung
[54] = test system: OVCAR-4 ovarian
[55] = test system: SF-295 CNS

SMILES: COc1ccc2c(c1)SC1=NNC(Cl)C(=O)N12 (stereo not drawn)
- GI50 [1]: 33.2 µM
- TGI [1]: > 100 µM
- GI50 [2]: 26.1 µM
- TGI [2]: 53.3 µM
- GI50 [3]: 38.1 µM
- TGI [3]: > 100 µM
- GI50 [4]: 12.4 µM
- TGI [4]: 26.3 µM
- GI50 [5]: 17.2 µM
- TGI [5]: 40.6 µM
- GI50 [6]: 16.7 µM
- TGI [6]: 44.3 µM
- GI50 [7]: 12.8 µM
- TGI [7]: 30.3 µM
- GI50 [8]: 10.5 µM
- TGI [8]: 29.1 µM
- GI50 [9]: 24 µM
- TGI [9]: 87.3 µM
- GI50 [10]: 15.8 µM
- TGI [10]: 38.4 µM
- GI50 [11]: 33.9 µM
- TGI [11]: > 100 µM
- GI50 [12]: 45.5 µM
- TGI [12]: > 100 µM
- GI50 [13]: 20.1 µM
- TGI [13]: 56.2 µM
- GI50 [14]: 40.4 µM
- TGI [14]: > 100 µM
- GI50 [15]: 11.8 µM
- TGI [15]: 35.1 µM
- GI50 [16]: 25.2 µM
- TGI [16]: > 100 µM
- GI50 [17]: 35.3 µM
- TGI [17]: > 100 µM
- GI50 [18]: 20.7 µM
- TGI [18]: 48 µM
- GI50 [19]: 16 µM
- TGI [19]: 37.4 µM
- GI50 [20]: 17.3 µM
- TGI [20]: 48.4 µM
- GI50 [21]: 24.5 µM
- TGI [21]: > 100 µM
- GI50 [22]: 15.3 µM
- TGI [22]: 35.6 µM
- GI50 [23]: 31.2 µM
- TGI [23]: > 100 µM
- GI50 [24]: 16.2 µM
- TGI [24]: 64.3 µM
- GI50 [25]: 18 µM
- TGI [25]: 39.6 µM
- GI50 [26]: 29.5 µM
- TGI [26]: > 100 µM
- GI50 [27]: 19.8 µM
- TGI [27]: 47.6 µM
- GI50 [28]: 27.9 µM
- TGI [28]: 94.1 µM
- GI50 [29]: 21.5 µM
- TGI [29]: 54.2 µM
- GI50 [30]: 37 µM
- TGI [30]: > 100 µM
- GI50 [31]: 18.2 µM
- TGI [31]: 54.1 µM
- GI50 [32]: 18.4 µM
- TGI [32]: 59.1 µM
- GI50 [33]: 24.2 µM
- TGI [33]: 62.1 µM
- GI50 [34]: 15.6 µM
- TGI [34]: 37.8 µM
- GI50 [35]: 42.1 µM
- TGI [35]: > 100 µM
- GI50 [36]: 13.7 µM
- TGI [36]: 35.2 µM
- GI50 [37]: 15.6 µM
- TGI [37]: 34 µM
- GI50 [38]: 33 µM
- TGI [38]: > 100 µM
- GI50 [39]: 16.5 µM
- TGI [39]: 37.3 µM
- GI50 [40]: 38.4 µM
- TGI [40]: > 100 µM
- GI50 [41]: 30.3 µM
- TGI [41]: 83.5 µM
- GI50 [42]: 21.8 µM
- TGI [42]: 65.7 µM
- GI50 [43]: 26.6 µM
- TGI [43]: 81.1 µM
- GI50 [44]: 18.9 µM
- TGI [44]: 45.1 µM
- GI50 [45]: 18.2 µM
- TGI [45]: 42.5 µM
- GI50 [46]: 15.6 µM
- TGI [46]: 36 µM
- GI50 [47]: 5.9 µM
- TGI [47]: > 100 µM

SMILES: CCCc1n(Cc2ccc3ccccc3c2)c2ccccc2[n+]1Cc1ccc2ccccc2c1
- GI50 [1]: 1.06 µM
- TGI [1]: 2.56 µM
- GI50 [2]: 0.356 µM
- TGI [2]: 1.98 µM
- GI50 [3]: 0.619 µM
- TGI [3]: 2.04 µM
- GI50 [4]: 1.25 µM
- TGI [4]: 2.57 µM
- GI50 [7]: 0.554 µM
- TGI [7]: 1.85 µM
- GI50 [15]: 0.323 µM
- TGI [15]: 1.28 µM
- GI50 [22]: 0.301 µM
- TGI [22]: 1.42 µM
- GI50 [48]: 0.314 µM
- TGI [48]: 1.26 µM
- GI50 [27]: 3.56 µM
- TGI [27]: 53.9 µM
- GI50 [28]: 0.544 µM
- TGI [28]: 1.98 µM
- GI50 [30]: 0.354 µM
- TGI [30]: 1.55 µM
- GI50 [36]: 0.577 µM
- TGI [36]: 1.99 µM
- GI50 [37]: 0.161 µM
- TGI [37]: 0.311 µM
- GI50 [38]: 0.488 µM
- TGI [38]: 1.74 µM
- GI50 [42]: 0.429 µM
- TGI [42]: 1.7 µM
- GI50 [43]: 0.461 µM
- TGI [43]: 1.68 µM
- GI50 [45]: 0.295 µM
- TGI [45]: 1.12 µM
- GI50 [46]: 0.318 µM
- TGI [46]: 1.42 µM
- GI50 [47]: 1.49 µM
- TGI [47]: 3 µM

SMILES: Cc1ccc(-c2c(C#N)c(-c3ccccc3)c(C#N)c(=O)n2NS(=O)(=O)c2ccc(C)cc2)cc1
- TGI [1]: > 100 µM
- TGI [2]: > 100 µM
- TGI [3]: > 100 µM
- TGI [4]: > 100 µM
- TGI [5]: > 100 µM
- TGI [49]: > 100 µM
- TGI [50]: 89.7 µM
- TGI [6]: > 100 µM
- TGI [8]: > 100 µM
- TGI [51]: > 100 µM
- TGI [9]: > 100 µM
- TGI [10]: > 100 µM
- TGI [12]: > 100 µM
- TGI [13]: > 100 µM
- TGI [14]: > 100 µM
- TGI [15]: > 100 µM
- TGI [16]: > 100 µM
- TGI [17]: > 100 µM
- TGI [18]: > 100 µM
- TGI [19]: > 100 µM
- TGI [20]: > 100 µM
- TGI [52]: > 100 µM
- TGI [21]: > 100 µM
- TGI [22]: > 100 µM
- TGI [48]: > 100 µM
- TGI [23]: 41.1 µM
- TGI [24]: > 100 µM
- TGI [26]: > 100 µM
- TGI [53]: > 100 µM
- TGI [27]: > 100 µM
- TGI [54]: > 100 µM
- TGI [28]: > 100 µM
- TGI [29]: > 100 µM
- TGI [30]: > 100 µM
- TGI [31]: 8.79 µM
- TGI [32]: > 100 µM
- TGI [33]: > 100 µM
- TGI [55]: > 100 µM
- TGI [34]: > 100 µM
- TGI [35]: > 100 µM
- TGI [36]: > 100 µM
- TGI [37]: 31.9 µM
- TGI [38]: > 100 µM
- TGI [39]: > 100 µM
- TGI [40]: 33.5 µM
- TGI [41]: > 100 µM
- TGI [42]: > 100 µM
- TGI [43]: > 100 µM
- TGI [44]: > 100 µM
- TGI [45]: > 100 µM
- TGI [46]: > 100 µM
